# Assay results reported in US11648253B2, “Thienopyrimidinone NMDA receptor modulators and uses thereof” (Novartis AG, priority 2015, dated 2023).
# Biological target: T1, NMDA receptor (GRIN1 / GRIN2B, NR2B) expressed in HEK293 cells (Homo sapiens, UniProt Q05586+Q13224)
# T1 construct: host or cells: HEK293
# Test: Reversal of Ro 25-6981-mediated suppression of Ca2+ response (fluo-8 fluorescence, FDSS) in HEK293 cells expressing GRIN1/GRIN2B
# Assay type: cell-based
# Conditions: % reversal of Ro 25-6981 suppression of co-agonist (glutamate/glycine) Ca2+ response, test concentration not given
# Method: HEK293 cells with constructs conferring stable expression of the GRIN1 gene and tetracycline-inducible expression of the GRIN2B gene (Chantest, Cleveland, Ohio) are grown to ˜75% confluence in tissue culture flasks at 37° C., 5% CO2. NR2B expression is induced by overnight incubation with 0.3-0.4 μg/ml tetracycline in the presence of 2.5 mM ARL-15896 at 37° C., followed by moving to 30° C. for 3-5 hours. Cells are next harvested using TripleExpressm (Life Technologies, Carlsbad, Calif.) according to the manufacturer's instructions, first removing culture medium, rinsing with Dulbecco's phosphate buffered saline (Ca^2+ and Mg^2+-free), and then adding the TripleExpressm reagent. Harvested cells are spun down, washed twice in Ca^2+- and Mg^2+-free Hank's Balanced Salt Solution with 20 mM HEPES and 10 mM glucose, pH 7.4 (HHnoCa solution), and counted with viability assessed using Trypan Blue. Cells are loaded with fluo-8 Ca^2+-sensitive dye in HHnoCa solution according to the manufacturer's directions (AAT Bioquest, Sunnyvale, Calif.), incubating at 37° C. for 20 minutes followed by 25 minutes at 22-25° C. After a wash in HHnoCa to remove extracellular dye, cells are resuspended in HHnoCa and plated at […] cells per well in a volume of 25 μl/well in 384 well black-wall, clear bottom plates (Hamamatsu, Middlesex, N.J.). Plates are then centrifuged to create a monolayer in the wells and stored in the dark until used.
# Prior to analysis, compound plates are prepared with each compound at 6× the final desired concentration. From stock solutions at 10 mM in 100% DMSO, compounds are spotted in the desired amounts using an ECHO liquid handler (Labcyte, Sunnyvale, Calif.) into wells of a 384-well plate and then diluted with 50 μl of HHnoCa containing 750 nM Ro 25-6981 and 120 μM 5,7-dichlorokynurenic acid (both purchased from Tocris Bioscience (Bristol, England) and maintained as 10 mM stock solutions in 100% DMSO). To insure complete compound dissolution, these plates are then placed in an orbital shaker for at least one hour. Also prepared prior to the assay is a co-agonist plate containing HHnoCa with 240 μM glutamate, 2.4 mM glycine, and 7.2 mM CaCl2, which is 2.4× the desired final concentration of each reagent. Both the compound plate and co-agonist plate are 384-well polypropylene plates from Thermo Fisher Scientific, Waltham, Mass.
# The assay is performed by first adding 10 μl solution from each well of the compound plate described above to the cell plate using a CyBiWell liquid handler (Analytik Jena AG, Jena, Germany), followed by 10 minutes pre-incubation in the dark. Cell plates are then loaded onto a Hamamatsu FDSS 6000 plate reader. After a 30-second baseline, 25 μl is added to each well from the co-agonist plate, and the fluorescence signal is recorded for another 2 minutes. FDSS software applies shading and autofluorescence correction, and resultant raw fluorescence measurements are exported in the form of a fluorescence ratio for each well to its own reading at time zero in the experiment. In each plate, negative control wells consist of wells where Ro 25-6981 and 5,7 dichlorokynurenic acid are present and co-agonist is applied in the absence of any added assay compound. Under these conditions, the Ca^2+ response to co-agonist is suppressed. Positive control wells also present in each plate contain 5,7 dichlorokynurenic acid but no Ro 25-6981, so that co-agonist addition results in a large Ca^2+ response. Compounds tested are evaluated on the basis of their ability to reverse the suppression of the Ca^2+ response mediated by Ro 25-6981, which is quantified as % reversal=100*(R−Rneg)/(Rpos−Rneg) where R is the fluorescence ratio for the test compound at the end of the experiment and Rneg and Rpos are the end ratios for the negative and positive controls, respectively. […]
# T1 sequence (Q13224 27-1484, other chains not shown): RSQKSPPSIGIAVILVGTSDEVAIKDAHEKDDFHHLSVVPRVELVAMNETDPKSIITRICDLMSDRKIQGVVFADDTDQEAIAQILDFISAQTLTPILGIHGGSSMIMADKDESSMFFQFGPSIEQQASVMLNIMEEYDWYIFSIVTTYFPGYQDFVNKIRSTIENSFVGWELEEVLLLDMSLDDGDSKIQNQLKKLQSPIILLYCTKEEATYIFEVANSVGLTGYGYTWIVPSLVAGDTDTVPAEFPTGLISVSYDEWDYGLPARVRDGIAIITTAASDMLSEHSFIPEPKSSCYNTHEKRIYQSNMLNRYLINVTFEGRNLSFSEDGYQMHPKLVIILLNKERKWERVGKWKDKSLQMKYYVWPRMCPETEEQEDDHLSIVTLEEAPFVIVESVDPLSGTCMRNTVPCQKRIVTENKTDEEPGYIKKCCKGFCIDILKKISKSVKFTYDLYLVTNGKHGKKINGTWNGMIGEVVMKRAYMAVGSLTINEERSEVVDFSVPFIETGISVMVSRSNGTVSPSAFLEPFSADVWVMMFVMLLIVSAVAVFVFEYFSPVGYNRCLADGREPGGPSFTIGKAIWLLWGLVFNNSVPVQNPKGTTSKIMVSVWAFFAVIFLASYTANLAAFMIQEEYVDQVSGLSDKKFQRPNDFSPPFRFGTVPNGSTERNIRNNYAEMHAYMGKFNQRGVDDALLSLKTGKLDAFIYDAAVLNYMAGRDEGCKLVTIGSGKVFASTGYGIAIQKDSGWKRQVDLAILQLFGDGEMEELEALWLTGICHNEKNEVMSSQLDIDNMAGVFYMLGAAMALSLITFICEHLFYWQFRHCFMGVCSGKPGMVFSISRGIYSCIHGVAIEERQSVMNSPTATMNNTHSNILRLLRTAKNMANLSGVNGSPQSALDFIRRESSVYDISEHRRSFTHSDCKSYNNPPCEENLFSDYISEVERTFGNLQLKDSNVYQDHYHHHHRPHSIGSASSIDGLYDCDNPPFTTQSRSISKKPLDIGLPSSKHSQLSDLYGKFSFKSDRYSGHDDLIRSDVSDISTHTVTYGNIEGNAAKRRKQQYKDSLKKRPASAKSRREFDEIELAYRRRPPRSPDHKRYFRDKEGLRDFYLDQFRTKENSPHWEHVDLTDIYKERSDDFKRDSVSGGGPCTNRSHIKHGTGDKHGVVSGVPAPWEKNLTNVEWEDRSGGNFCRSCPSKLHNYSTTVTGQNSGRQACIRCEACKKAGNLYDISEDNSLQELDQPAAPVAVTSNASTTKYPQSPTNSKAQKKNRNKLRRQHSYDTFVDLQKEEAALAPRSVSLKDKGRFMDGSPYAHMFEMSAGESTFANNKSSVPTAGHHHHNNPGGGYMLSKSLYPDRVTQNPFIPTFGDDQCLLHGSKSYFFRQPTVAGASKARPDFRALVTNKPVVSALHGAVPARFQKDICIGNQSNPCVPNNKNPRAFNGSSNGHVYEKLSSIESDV
row,Avg Response Recovered (%),Structure (SMILES)
1,11,"O=C(Cn1cnc2scc(-c3ccc(C(F)(F)F)cc3)c2c1=O)N1CC(F)(F)C1 [Example 5, 3-[2-(3,3-difluoroazetidin-1-yl)-2-oxoethyl]-5-[4-(trifluoromethyl)phenyl]-3H,4H-thieno[2,3-d]pyrimidin-4-one]"
2,152,"CC1(F)CN(C(=O)Cn2cnc3scc(-c4ccc(Cl)c(Cl)c4)c3c2=O)C1 [Example 11, 5-(3,4-dichlorophenyl)-3-[2-(3-fluoro-3-methylazetidin-1-yl)-2-oxoethyl]-3H,4H-thieno[2,3-d]pyrimidin-4-one]"
3,103,"CCC1(F)CN(C(=O)Cn2cnc3scc(-c4ccc(Cl)c(Cl)c4)c3c2=O)C1 [Example 15, 5-(3,4-dichlorophenyl)-3-[2-(3-ethyl-3-fluoroazetidin-1-yl)-2-oxoethyl]-3H,4H-thieno[2,3-d]pyrimidin-4-one]"
4,165,"CC1(F)CN(C(=O)Cn2cnc3scc(-c4ccc(F)c(Cl)c4)c3c2=O)C1 [Example 14, 5-(3-chloro-4-fluorophenyl)-3-[2-(3-fluoro-3-methylazetidin-1-yl)-2-oxoethyl]-3H,4H-thieno[2,3-d]pyrimidin-4-one]"
5,−1,"O=C(CCn1cnc2scc(-c3ccc(Cl)c(C(F)(F)F)c3)c2c1=O)N1CC(F)(F)C1 [Example 20, 5-[4-chloro-3-(trifluoromethyl)phenyl]-3-[3-(3,3-difluoroazetidin-1-yl)-3-oxopropyl]-3H,4H-thieno[2,3-d]pyrimidin-4-one]"
6,121,"O=C(Cn1cnc2scc(-c3ccc(Cl)c(Cl)c3)c2c1=O)N1CC(F)(CF)C1 [Example 10, 5-(3,4-dichlorophenyl)-3-{2-[3-fluoro-3-(fluoromethyl)azetidin-1-yl]-2-oxoethyl}-3H,4H-thieno[2,3-d]pyrimidin-4-one]"
7,7,"O=C(Cn1cnc2scc(-c3ccc(Cl)cc3)c2c1=O)N1CC(F)(F)C1 [Example 2, 5-(4-chlorophenyl)-3-[2-(3,3-difluoroazetidin-1-yl)-2-oxoethyl]-3H,4H-thieno[2,3-d]pyrimidin-4-one]"
8,49,"O=C(Cn1cnc2scc(-c3ccc(F)c(Cl)c3)c2c1=O)N1CC(F)(F)C1 [Example 9, 5-(3-chloro-4-fluorophenyl)-3-[2-(3,3-difluoroazetidin-1-yl)-2-oxoethyl]-3H,4H-thieno[2,3-d]pyrimidin-4-one]"
9,6,"O=C(Cn1cnc2scc(-c3ccc(F)cc3)c2c1=O)N1CC(F)(F)C1 [Example 7, 3-[2-(3,3-difluoroazetidin-1-yl)-2-oxoethyl]-5-(4-fluorophenyl)-3H,4H-thieno[2,3-d]pyrimidin-4-one]"
10,5,"Cc1ccc(-c2csc3ncn(CC(=O)N4CC(F)(F)C4)c(=O)c23)cc1 [Example 8, 3-[2-(3,3-difluoroazetidin-1-yl)-2-oxoethyl]-5-(4-methylphenyl)-3H,4H-thieno[2,3-d]pyrimidin-4-one]"
11,141,"O=C(Cn1cnc2scc(-c3ccc(F)c(Cl)c3)c2c1=O)N1CC(F)(CF)C1 [Example 13, 5-(3-chloro-4-fluorophenyl)-3-{2-[3-fluoro-3-(fluoromethyl)azetidin-1-yl]-2-oxoethyl}-3H,4H-thieno[2,3-d]pyrimidin-4-one]"
12,149,"CCC1(F)CN(C(=O)Cn2cnc3scc(-c4ccc(F)c(Cl)c4)c3c2=O)C1 [Example 12, 5-(3-chloro-4-fluorophenyl)-3-[2-(3-ethyl-3-fluoroazetidin-1-yl)-2-oxoethyl]-3H,4H-thieno[2,3-d]pyrimidin-4-one]"
13,24,"COC1CN(C(=O)Cn2cnc3sc(-c4ccc(Cl)cc4)cc3c2=O)C1 [Example 17, 6-(4-chlorophenyl)-3-[2-(3-methoxyazetidin-1-yl)-2-oxoethyl]-3H,4H-thieno[2,3-d]pyrimidin-4-one]"
14,1,"COC1CN(C(=O)Cn2cnc3scc(-c4ccc(Cl)cc4)c3c2=O)C1 [Example 4, 5-(4-chlorophenyl)-3-[2-(3-methoxyazetidin-1-yl)-2-oxoethyl]-3H,4H-thieno[2,3-d]pyrimidin-4-one]"
15,0,"O=C(Cn1cnc2scc(-c3ccc(Cl)cc3)c2c1=O)N1CC2(COC2)C1 [Example 3, 5-(4-chlorophenyl)-3-(2-{2-oxa-6-azaspiro[3.3]heptan-6-yl}-2-oxoethyl)-3H,4H-thieno[2,3-d]pyrimidin-4-one]"
16,62,"O=C(Cn1cnc2scc(-c3ccc(Cl)c(C(F)(F)F)c3)c2c1=O)N1CC(F)(F)C1 [Example 6, 5-[4-chloro-3-(trifluoromethyl)phenyl]-3-[2-(3,3-difluoroazetidin-1-yl)-2-oxoethyl]-3H,4H-thieno[2,3-d]pyrimidin-4-one]"

row,Structure (SMILES),Avg Response Recovered (%)
1,"Cc1sc2ncn(CC(=O)N3CC(F)(F)C3)c(=O)c2c1-c1ccc(Cl)cc1 [Example 18, 5-(4-chlorophenyl)-3-[2-(3,3-difluoroazetidin-1-yl)-2-oxoethyl]-6-methyl-3H,4H-thieno[2,3-d]pyrimidin-4-one]",11
2,"O=C(Cn1c(C(F)(F)F)nc2scc(-c3ccc(Cl)cc3)c2c1=O)N1CC(F)(F)C1 [Example 21, 5-(4-chlorophenyl)-3-[2-(3,3-difluoroazetidin-1-yl)-2-oxoethyl]-2-(trifluoromethyl)-3H,4H-thieno[2,3-d]pyrimidin-4-one]",0
3,"O=C(Cn1cnc2sc(-c3ccc(Cl)cc3)cc2c1=O)N1CCC1 [Example 16, 3-[2-(azetidin-1-yl)-2-oxoethyl]-6-(4-chlorophenyl)-3H,4H-thieno[2,3-d]pyrimidin-4-one]",23
4,"Cc1nc2scc(-c3ccc(Cl)cc3)c2c(=O)n1CC(=O)N1CC(F)(F)C1 [Example 19, 5-(4-chlorophenyl)-3-[2-(3,3-difluoroazetidin-1-yl)-2-oxoethyl]-2-methyl-3H,4H-thieno[2,3-d]pyrimidin-4-one]",5
5,"O=C(Cn1cnc2scc(-c3ccc(Cl)cc3)c2c1=O)N1CCC1 [Example 1, 3-[2-(azetidin-1-yl)-2-oxoethyl]-5-(4-chlorophenyl)-3H,4H-thieno[2,3-d]pyrimidin-4-one]",2
